Patent publication US20090162315A1 (priority 2004, published 2009)
Where “and” joins values, the source holds several entries; their conditions need not be identical. Equal entries are not always repeated.

Legend:
[1] = system: T84 human colon-carcinoma cells; assay type: cell-based
[2] = system: T84 human colon-carcinoma cells; assay type: cell-based; remark: listed apart in the source
[3] = system: T84 human colon-carcinoma cells; assay type: cell-based; remark: listed apart in the source
patients with MPE = conditions: in vivo; cited from earlier work

Compound	TER (Ω/cm^2) [1]	^51Cr-EDTA flux (nml · h · cm^2) [2] [nml · h · cm^2]	Δ Isc to CCh (μA/cm2) [3] [μA/cm2]	Δ Isc to Fsk (% of control) [3]	Response rate in MPE (patients with MPE) [%]
N.N.[Cl][Pt][Cl] [Cisplatin, cis-diaminodichloroplatinum]	800 Ω/cm^2 and 750 Ω/cm^2	2.8	20	90 % of control	
Staphylococcal enterotoxin B [SEB]			23	95 % of control	
bleomycin					50
